This passage reports Kd results from US20080103170A1, “Nicotinic Acetylcholine Receptor Ligands” (AstraZeneca AB, priority 2004, published 2008).

The test deals with T1, α4 nAChR (Rattus norvegicus, UniProt P09483+P12390).
T1 construct: from tissue; host or cells: rat cortical brain membranes
Put plainly: Affinity at α4 nAChR by [125I]-IPH binding to rat cortical membranes. The conditions noted are these: saturation curves fitted to a one site model. How it is done:
Assay for Affinity at an α4 nAChR Receptor by Measuring the Binding of […] Binding to Rat Cortical Membranes
A procedure modified from Martino-Barrows and Kellar (Mol Pharm (1987) 31:169-174) may be used. Rat cortical brain membranes are prepared as described in the [^125I]α-BTX binding assay, except that a 500-12000×g membrane fraction is prepared. Membranes (30-150 μg) are incubated with 30-100 pM of the epibatidine analog [^125I]-IPH ((+/−)-exo-2-(2-iodo-5-pyridyl)-7-azabicyclo-[2,2,1]heptane) together with test compound in HB for 1 hour at room temperature with gentle shaking. Membranes may be recovered as described for the [^125I]α-BTX binding assay. Non-specific binding may be determined by 100 μM carbachol. Typically specific binding is about 84%.
Analysis of Binding Data Obtained in α7 nAChR or α4 nAChR Receptor Assays
IC50 values and pseudo Hill coefficients (nH) may be calculated using the non-linear curve fitting program ALLFIT (DeLean A, Munson P J and Rodbard D (1977) Am. J. Physiol., 235:E97-E102). […] Ki values may be estimated using the general Cheng-Prusoff equation:
Ki=[IC50]/((2+ligand/KD)^n)^1/n−1)
where a value of n=1 is used whenever nH<1.5 and a value of n=2 is used when nH≧1.5. To account for variability, assays may be performed in triplicate and variability will typically be ±5%. Ki values may be determined using six to 11 drug concentrations.

T1 sequence (P12390 25-500): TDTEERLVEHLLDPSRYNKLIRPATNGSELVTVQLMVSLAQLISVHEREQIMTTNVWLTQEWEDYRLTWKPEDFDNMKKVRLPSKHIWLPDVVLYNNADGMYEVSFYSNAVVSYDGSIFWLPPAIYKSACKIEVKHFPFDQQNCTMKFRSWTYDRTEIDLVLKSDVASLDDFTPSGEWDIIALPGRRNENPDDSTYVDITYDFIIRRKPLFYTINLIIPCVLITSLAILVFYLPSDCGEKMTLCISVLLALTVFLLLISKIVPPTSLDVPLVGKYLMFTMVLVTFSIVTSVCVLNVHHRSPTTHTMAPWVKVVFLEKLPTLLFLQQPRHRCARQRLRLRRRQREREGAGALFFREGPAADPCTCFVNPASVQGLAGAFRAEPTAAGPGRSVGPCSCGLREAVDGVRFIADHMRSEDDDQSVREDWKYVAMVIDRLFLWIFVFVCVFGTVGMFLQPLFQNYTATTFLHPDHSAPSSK
T1 sequence (P09483 31-630): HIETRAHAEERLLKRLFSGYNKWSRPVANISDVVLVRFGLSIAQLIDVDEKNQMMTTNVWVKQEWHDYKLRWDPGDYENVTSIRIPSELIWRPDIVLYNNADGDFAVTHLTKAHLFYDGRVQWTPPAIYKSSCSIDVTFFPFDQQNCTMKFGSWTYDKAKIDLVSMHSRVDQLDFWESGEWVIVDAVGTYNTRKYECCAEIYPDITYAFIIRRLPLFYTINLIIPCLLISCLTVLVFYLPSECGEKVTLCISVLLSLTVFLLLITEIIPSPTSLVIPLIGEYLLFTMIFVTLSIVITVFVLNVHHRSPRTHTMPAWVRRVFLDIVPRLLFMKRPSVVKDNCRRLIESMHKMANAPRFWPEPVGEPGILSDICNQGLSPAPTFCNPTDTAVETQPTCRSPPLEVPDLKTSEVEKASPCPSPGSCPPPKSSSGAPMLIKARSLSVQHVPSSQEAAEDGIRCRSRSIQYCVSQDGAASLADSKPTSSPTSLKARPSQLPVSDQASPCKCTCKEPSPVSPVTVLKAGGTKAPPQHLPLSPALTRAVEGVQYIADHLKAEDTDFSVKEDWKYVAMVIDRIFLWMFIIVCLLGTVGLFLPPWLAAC

Broadly, the Kd is the free concentration of one partner at which half of the binding sites on the other are occupied at equilibrium, for simple one-to-one binding. `Ic1ccc(C2CC3CCC2N3)cn1` (racemic) [[^125I]-IPH, (+/−)-exo-2-(2-iodo-5-pyridyl)-7-azabicyclo-[2,2,1]heptane] yielded a Kd of 0.064 nM.
